# In patent US20220024906A1, “COMPOUNDS AND COMPOSITIONS FOR TREATING CONDITIONS ASSOCIATED WITH STING ACTIVITY” (IFM Due, Inc., priority 2020, published 2022):
# Biological target: T1, hSTING (Homo sapiens, UniProt Q86WV6, G230A/H232R/R293Q/R71H)
# T1 construct: host or cells: THP1-Dual KO-IFNAR2 cells
# Assay: STING reporter assay (luciferase) in THP1-Dual KO-IFNAR2 cells stimulated with 2′3′cGAMP
# Type: cell-based
# Details: 15 μM 2′3′cGAMP transfected, 24 h, luciferase reporter activity
# Experimental: STING pathway activation by the compounds described herein was measured using THP1-Dual™ cells (KO-IFNAR2).
# THP1-Dual™ KO-IFNAR2 Cells (obtained from invivogen) were maintained in RPMI, 10% FCS, 5 ml P/S, 2 mM L-glut, 10 mM Hepes, and 1 mM sodium pyruvate. Compounds were spotted in empty 384 well tissue culture plates (Greiner 781182) by Echo for a final concentration of 0.0017-100 μM. Cells were plated into the TC plates at 40 μL per well, 2×10E6 cells/mL. For activation with STING ligand, 2′3′cGAMP (MW 718.38, obtained from Invivogen), was prepared in Optimem media.
# The following solutions were prepared for each 1×384 plate: • Solution A: 2 mL Optimem with one of the following stimuli: • 60 μL of 10 mM 2′3′cGAMP→150 μM stock • Solution B: 2 mL Optimem with 60 μL Lipofectamine 2000→Incubate 5 min at RT
# 2 mL of solution A and 2 ml Solution B was mixed and incubated for 20 min at room temperature (RT). 20 μL of transfection solution (A+B) was added on top of the plated cells, with a final 2′3′cGAMP concentration of 15 μM. The plates were then centrifuged immediately at 340 g for 1 minute, after which they were incubated at 37° C., 5% CO2, >98% humidity for 24 h. Luciferase reporter activity was then measured. EC50 values were calculated by using standard methods known in the art.
# Luciferase reporter assay: 10 μL of supernatant from the assay was transferred to white 384-plate with flat bottom and squared wells. One pouch of QUANTI-Luc™ Plus was dissolved in 25 mL of water. 100 μL of QLC Stabilizer per 25 mL of QUANTI-Luc™ Plus solution was added. 50 μL of QUANTI-Luc™ Plus/QLC solution per well was then added. Luminescence was measured on a Platereader (e.g., Spectramax I3X (Molecular Devices GF3637001)).
# Luciferase reporter activity was then measured. EC50 values were calculated by using standard methods known in the art.
# T1 sequence (Q86WV6 whole entry R71H/G230A/H232R/R293Q): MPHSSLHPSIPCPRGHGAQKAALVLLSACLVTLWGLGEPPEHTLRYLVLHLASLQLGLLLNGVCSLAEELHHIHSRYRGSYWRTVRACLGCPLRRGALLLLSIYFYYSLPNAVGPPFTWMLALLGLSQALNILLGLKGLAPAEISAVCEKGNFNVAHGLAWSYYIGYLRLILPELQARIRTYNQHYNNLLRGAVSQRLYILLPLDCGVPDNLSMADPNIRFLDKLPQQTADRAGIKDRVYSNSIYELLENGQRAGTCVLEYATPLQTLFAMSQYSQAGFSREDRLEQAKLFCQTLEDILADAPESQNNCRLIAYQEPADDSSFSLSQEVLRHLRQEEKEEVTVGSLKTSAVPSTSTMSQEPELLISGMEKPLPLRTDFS
row,EC50 [nM],Compound
1,200 to 1000,"Cn1ccc(CC(=O)Nc2c[nH]c3ccc(-c4cnn(-c5ccc(C(F)(F)F)cc5)c4)cc23)n1 [Compound 168, 2-(1-methyl-1H-pyrazol-3-yl)-N-(5-(1-(4-(trifluoromethyl)phenyl)-1H-pyrazol-4-yl)-1H-indol-3-yl)acetamide]"
2,200 to 1000,"O=C(CCc1cn[nH]c1)Nc1c[nH]c2ccc(-c3cnn(-c4ccc(C(F)(F)F)cc4)c3)cc12 [Compound 140, 3-(1H-pyrazol-4-yl)-N-(5-(1-(4-(trifluoromethyl)phenyl)-1H-pyrazo1-4-yl)-1H-indol-3-yl)propanamide]"
3,1000 to 5000,"Cn1cnnc1CCC(=O)Nc1c[nH]c2ccc(-c3cnn(-c4ccc(C(F)(F)F)cc4)c3)cc12 [Compound 153, 3-(4-methyl-4H-1,2,4-triazol-3-yl)-N-(5-(1-(4-(trifluoromethyl)phenyl)-1H-pyrazol-4-yl)-1H-indol-3-yl)propanamide]"
4,200 to 1000,"O=C(CCn1ccnc1)Nc1c[nH]c2ccc(-c3cnn(-c4ccc(C(F)(F)F)cc4)c3)cc12 [Compound 142, 3-(1H-imidazol-1-yl)-N-(5-(1-(4-(trifluoromethyl)phenyl)-1H-pyrazol-4-yl)-1H-indol-3-yl)propanamide]"
5,5000 to 100000,"COc1cccc(CCC(=O)Nc2c[nH]c3cc(F)c(F)cc23)n1 [Compound 108, N-(5,6-difluoro-1H-indol-3-yl)-3-(6-methoxypyridin-2-yl)propanamide]"
6,1000 to 5000,"O=C(CN1CCCC1=O)Nc1c[nH]c2ccc(-c3cnn(-c4ccc(C(F)(F)F)cc4)c3)cc12 [Compound 166, 2-(2-oxopyrrolidin-1-yl)-N-(5-(1-(4-(trifluoromethyl)phenyl)-1H-pyrazol-4-yl)-1H-indol-3-yl)acetamide]"
7,1000 to 5000,"N#Cc1cc(CC(=O)Nc2c[nH]c3cc(F)c(F)cc23)ccn1 [Compound 107, 2-(2-cyanopyridin-4-yl)-N-(5,6-difluoro-1H-indol-3-yl)acetamide]"
8,200 to 1000,"Cn1cc(CC(=O)Nc2c[nH]c3ccc(-c4cnn(-c5ccc(C(F)(F)F)cc5)c4)cc23)cn1 [Compound 146, 2-(1-methyl-1H-pyrazol-4-yl)-N-(5-(1-(4-(trifluoromethyl)phenyl)-1H-pyrazol-4-yl)-1H-indol-3-yl)acetamide]"
9,1000 to 5000,"O=C(Nc1c[nH]c2ccc(-c3cnn(-c4ccc(C(F)(F)F)cc4)c3)cc12)C(O)c1ccccc1 (centres unmarked) [Compound 154, 2-hydroxy-2-phenyl-N-(5-(1-(4-(trifluoromethyl)phenyl)-1H-pyrazol-4-yl)-1H-indol-3-yl)acetamide]"
10,200 to 1000,"Cc1nnc(CC(=O)Nc2c[nH]c3ccc(-c4cnn(-c5ccc(C(F)(F)F)cc5)c4)cc23)o1 [Compound 138, 2-(5-methyl-1,3,4-oxadiazol-2-yl)-N-(5-(1-(4-(trifluoromethyl)phenyl)-1H-pyrazol-4-yl)-1H-indol-3-yl)acetamide]"
11,1000 to 5000,"Cc1noc(C)c1CC(=O)Nc1c[nH]c2ccc(-c3cnn(-c4ccc(C(F)(F)F)cc4)c3)cc12 [Compound 160, 2-(3,5-dimethylisoxazol-4-yl)-N-(5-(1-(4-(trifluoromethyl)phenyl)-1H-pyrazol-4-yl)-1H-indol-3-yl)acetamide]"
12,5000 to 100000,"O=C(Cc1cccc(OC(F)F)c1)Nc1c[nH]c2cc(F)c(F)cc12 [Compound 127, N-(5,6-difluoro-1H-indol-3-yl)-2-(3-(difluoromethoxy)phenyl)acetamide]"
13,5000 to 100000,"O=C(Cc1ncc[nH]1)Nc1c[nH]c2ccc(-c3cnn(-c4ccc(C(F)(F)F)cc4)c3)cc12 [Compound 149, 2-(1H-imidazol-2-yl)-N-(5(1-(4-(trifluoromethyl)phenyl)-1H-pyrazol-4-yl)-1H-indol-3-yl)acetamide]"
14,200 to 1000,"O=C(CCN1CCOC1=O)Nc1c[nH]c2ccc(-c3cnn(-c4ccc(C(F)(F)F)cc4)c3)cc12 [Compound 167, 3-(2-oxooxazolidin-3-yl)-N-(5-(1-(4-(trifluoromethyl)phenyl)-1H-pyrazol-4-yl)-1H-indol-3-yl)propanamide]"
